Measurements from patent US8367720B2 (Panorama Research Inc., priority 2007, dated 2013).
Like-named read-outs stand apart in the source and are kept apart here.

How the values were obtained:
L1210 leukemia cells = assay: In vitro antitumor activity to L1210 leukemia cells (MTT); assay type: cell-based; conditions: for IC50: Mus musculus
Experimental: The cells were cultured in an incubator at 37° C., 5% CO2 and saturated humidity for 48 h. Then 5 mg/mL MTT (20 μL/well) was added and cultured at the same conditions for 4 h, DMSO (150 μL/well) was added, and the (570/630 nm) absorbance (A values) was measured by using micro-plate reader.

Bacillus subtilis = assay: Inhibition zone test (holing method); assay type: cell-based; conditions: 37° C., 24 h; compounds 0.05 mg/well, streptomycin 0.15 mg/well
Experimental: (§1) After being cultured at 37° C. for 24 h, the sizes of inhibition zones were measured.

Candida albicans = assay: Inhibition zone test (holing method); assay type: cell-based; conditions: 37° C., 24 h; compounds 0.05 mg/well, nysfungin 0.10 mg/well
Experimental: as §1

E. coli = assay: Inhibition zone test (holing method); assay type: cell-based; conditions: 37° C., 24 h; compounds 0.05 mg/well, gentamicin 0.10 mg/well
Experimental: as §1

Pseudomonas aeruginosa [1] = assay: Inhibition zone test (holing method); assay type: cell-based; conditions: 37° C., 24 h; compounds 0.05 mg/well, gentamicin 0.10 mg/well
Experimental: as §1

[2] = test system: Staphylococcus aureus MRSA 5676; assay: Inhibition zone test (holing method); assay type: cell-based; conditions: 37° C., 24 h; compounds 0.05 mg/well, vancomycin 0.15 mg/well
Experimental: as §1

[3] = test system: Staphylococcus aureus MRSA 5677; assay: Inhibition zone test (holing method); assay type: cell-based; conditions: 37° C., 24 h; compounds 0.05 mg/well, vancomycin 0.15 mg/well
Experimental: as §1

[4] = test system: Staphylococcus aureus wild type; assay: Inhibition zone test (holing method); assay type: cell-based; conditions: 37° C., 24 h; compounds 0.05 mg/well, streptomycin 0.15 mg/well
Experimental: as §1

Pseudomonas aeruginosa [5] = assay: Measurement of growth curve of Pseudomonas aeruginosa; assay type: cell-based; conditions: 1 mM (FIG. 2)
Experimental: Pseudomonas aeruginosa was inoculated in LB medium, and cultured at a constant temperature of 37° C. in a shaker overnight.

[6] = test system: secretion of pyocyanin by Pseudomonas aeruginosa; assay: Measurement of pyocyanin; assay type: cell-based; conditions: 18 h culture, A520; Andro, AL-1 1 mM; Chuanhuning, Yanhuning, Lianbizhi 10 mM (FIG. 3)
Experimental: Pseudomonas aeruginosa was inoculated in LB medium, then cultured at a constant temperature of 37° C. in a shaker overnight. […] The supernatant was taken and extracted in turn with chloroform and 0.2 N HCl, and A520 values were measured (Zielinshi et al., Biol. Chem. 1991, 266, 9754-9763; May et al., Clin. Microbiology Rev. 1991, 4, 191-206).

[7] = test system: extracellular protease of Pseudomonas aeruginosa; assay: Measurement of extracellular protease; assay type: cell-based; conditions: azo-casein, A440; Andro, AL-1 1 mM; Chuanhuning, Yanhuning, Lianbizhi 10 mM (FIG. 4)
Experimental: Pseudomonas aeruginosa was inoculated in LB liquid, and cultured at a constant temperature of 37° C. in a shaker overnight. […] After the bacterial liquids were cultured simultaneously at 37° C. for 6 h and centrifuged, supernatant 100 μL was taken, azo-casein 5 mg was added, […] and CaCl2 10 mM were added, and then they were shaken for reaction at 37° C. for 6 h, and the reaction was terminated by adding EDTA-Na. The A440 values of the supernatants were measured (Zielinshi et al., Biol. Chem. 1991, 266, 9754-9763; May et al., Clin. Microbiology Rev. 1991, 4, 191-206).

macrophages = conditions: read-out: IC50, inhibition of cell division (C5α induced, macrophages); cited from earlier work
MCF-7 breast cancer = conditions: 100 mg/kg, mice, hollow fiber system; cited from earlier work
B16F0 melanoma = conditions: orally 200 mg/kg, twice per day; cited from earlier work
HT-29 human colon cancer = conditions: orally 200 mg/kg, twice per day; cited from earlier work
L1210 cells = assay type: cell-based; conditions: 10 μM, after 12 h
Experimental: The cells were cultured in an incubator at 37° C., 5% CO2 and saturated humidity. The culture medium was removed, the cells were washed with PBS twice, fixed at −20° C. overnight. Then the cells were centrifuged again, washed with PBS to remove ethanol, cultured with RNase A (200 μg/mL, Sigma) at 37° C. for 1 h, stained with PI (50 μg/mL, Sigma) in dark for 30 min, and detected by using a flow cytometer.

[8] = test system: Staphylococcus aureus wild type; assay: Test of minimal inhibitory concentration (MIC); assay type: cell-based; conditions: two-fold dilution, 37° C., 24 h, absorbance 595 nm
MRSA5676 = assay: Test of minimal inhibitory concentration (MIC); assay type: cell-based, Staphylococcus aureus; conditions: two-fold dilution, 37° C., 24 h, absorbance 595 nm
MRSA5677 = assay: Test of minimal inhibitory concentration (MIC); assay type: cell-based, Staphylococcus aureus; conditions: two-fold dilution, 37° C., 24 h, absorbance 595 nm
Pseudomonas aeruginosa [9] = assay: Atomic force microscope (AFM) experiment; assay type: cell-based; conditions: 1 mM, 15 h contact (FIG. 5)
Experimental: Pseudomonas aeruginosa was inoculated in LB liquid, shaken and cultured at a constant temperature of 37° C. overnight, and the bacterial liquid was centrifuged, washed with sterile physiological saline twice, and mixed with physiological saline to form a bacterial suspension having a turbidity of 0.5 McFarland Standard (bacterial number was about 5×10^8-9 CFU/mL). The bacterial suspension was diluted with physiological saline 50-times. […] After contacting with medicines for 15 h, 1 mL culture solution was added in a sterile centrifuge tube and centrifuged at 10,000×g for 5 min. The supernatant liquid was discarded, and the obtained bacterial sample was washed with double distilled water twice, and suspended in double distilled water. A small volume of Pseudomonas aeruginosa suspension was taken and dropped on a cover slip carefully. After water was dried under atmospheric condition, the bacteria were observed by CP-Research type atom force microscope (U.S.A., Thermomicroscopes Co.) ([…] et al., Antimicro. Chemother. 1994, 34, 679-685; […] et al., Antimicro. Agents Chemother. 2000, 44, 682-687; Nickel et al., Urology 1986, 135, 586-588).

[10] = test system: BF of Pseudomonas aeruginosa; assay: Scanning electron microscopy (SEM) experiment, biofilm (BF) formation; assay type: cell-based; conditions: 1 mM; early BF 3rd day, mature BF 7th day (FIG. 6, 7)
Experimental: Pseudomonas aeruginosa was inoculated in LB liquid, and cultured at a constant temperature of 37° C. in a shaker overnight, and the bacterial liquid was centrifuged, washed with sterile physiological saline twice, and mixed with physiological saline to form a bacterial suspension having a turbidity of 0.5 McFarland Standard (bacterial number was about 5×10^8-9 CFU/mL). The bacterial suspension was diluted with physiological saline 50-times. A biofilm (BF) carrier was placed in a tube containing 2 mL of the bacterial liquid, and the culturing was conducted at 37° C. […] Medium was replaced every other two days. The formation of BF was observed by using Quanta 400 thermal field emission scanning electron microscope (FEI Company). The carrier adhered with BF was washed with sterile physiological saline to remove floating bacteria, fixed with 2.5% glutaral, immersed in pH 7.4 PBS for three times, dewatered in turn with 50%, 70%, 80% and 90% ethanol once, then dewatered with 100% ethanol twice and with tert-butanol twice, 5 min for each time, and lyophilized for 5 h. The surface of carrier was plated with gold under vacuum.

[11] = test system: suspended Pseudomonas aeruginosa; assay: Experiment of combination with antibiotics; assay type: cell-based; conditions: Pseudomonas aeruginosa cultured 15 h, OD600; ciprofloxacin 0.017 μg/mL, erythromycin 3.75 μg/mL, Andro 350 μg/mL, AL-1 538 μg/mL (1 μmol/mL)
[12] = test system: rats with STZ-induced diabetes mellitus; assay: Therapeutical effects on STZ-induced diabetes mellitus in rats
Experimental: 30 Female SD rats, 180-220 g, fasted for 16 h, were subjected to intraperitoneal injection of 60 mg/kg of STZ (purchased from Sigma Company). After 72 h, blood samples were collected from the rats by cutting their tails after fasting 16 h, and blood glucose values were measured by using a blood glucose analyzer (Johnson & Johnson Company). […] Animals were weighed, orbital bleeded, and the sera were separated. According to the instructions of kit (Zhejiang Dongou Biotechnology Co., Ltd.), the contents of triglyceride and total cholesterol were measured. […] The rats of vehicle group were treated with an equivalent volume of solvent (20% DMSO in H2O). After being fasted for 16 h, the rats were weighed, and bleeded for the measurement of blood glucose, triglyceride and total cholesterol. The obtained data were processed by using one-factor analysis of variance (One-way ANOVA) followed by Student's t-test.

| SMILES | Inhibition zone diameter, Bacillus Subtilis (Bacillus subtilis) | Inhibition zone diameter, Candida albicans (Candida albicans) | Inhibition zone diameter, E. coli (E. coli) | Inhibition zone diameter, Pseudomonas aeruginosa (Pseudomonas aeruginosa [1]) | Inhibition zone diameter, Staphylococcus aureus MRSA 5676 [2] | Inhibition zone diameter, Staphylococcus aureus MRSA 5677 [3] | Inhibition zone diameter, Staphylococcus aureus Wild type [4] | inhibition of the growth of Pseudomonas aeruginosa (growth curve, A600) (Pseudomonas aeruginosa [5]) | inhibition of the secretion of pyocyanin [6] | inhibition of the production/activity of extracellular protease [7] | other results |
| --- | --- | --- | --- | --- | --- | --- | --- | --- | --- | --- | --- |
| C=C1CCC2[C@@](C)(CC[C@@H](O)[C@@]2(C)CO)C1C/C=C1/C(=O)OCC1O (stereo partly drawn) [Andro, Andrographolide] | ^b (incompetence (inhibition zone diameter <4 mm)) | ^b (incompetence (inhibition zone diameter <4 mm)) | ^b (incompetence (inhibition zone diameter <4 mm)) | ^b (incompetence (inhibition zone diameter <4 mm)) | ^b (incompetence (inhibition zone diameter <4 mm)) | ^b (incompetence (inhibition zone diameter <4 mm)) | ^b (incompetence (inhibition zone diameter <4 mm)) | weak antibacterial activity | AL-1>Andro>ANO | AL-1>ANO>Andro | IC50 (L1210 leukemia cells; L1210, 48 h): 28.7 ± 6.19 µM; IC50 (macrophages): 5.6 ± 0.7 µM; inhibition of growth (MCF-7 breast cancer): about 50%; inhibition of growth of melanoma (B16F0 melanoma): 39%; inhibition of growth of colon cancer (HT-29 human colon cancer): 52% |
| C=C1CCC2[C@](C)(CO)[C@H](O)CC[C@@]2(C)[C@@H]1C/C=C1/C(=O)OCC1OC(=O)CCCCC1CCSS1 (stereo partly drawn) [AL-1, 14-lipoyl-3,19-dihydroxy-andrographolide] | ^b (incompetence (inhibition zone diameter <4 mm)) | ^b (incompetence (inhibition zone diameter <4 mm)) | ^b (incompetence (inhibition zone diameter <4 mm)) | ^b (incompetence (inhibition zone diameter <4 mm)) | 6.9 ± 0.80 mm | 4.1 ± 0.77 mm | 4.9 ± 0.81 mm | significantly inhibited the growth of bacteria | AL-1>Andro>ANO | AL-1>ANO>Andro | cytotoxicity relative to andrographolide (L1210 leukemia cells; L1210 cells): 3 times; IC50 (L1210 leukemia cells; L1210 cells, 48 h, MTT, read-out: IC50): 8.04 ± 1.92 µM; effect on cell cycle / apoptosis of L1210 cells (L1210 cells): arrest L1210 cells at G1 prophase; MIC, Wild type [8]: 1000; MIC, MRSA5676 (MRSA5676): 1000; MIC, MRSA5677 (MRSA5677): 1000; growth morphology of Pseudomonas aeruginosa under AFM (Pseudomonas aeruginosa [9]): did not form a confertim bacterial colony; formation of early and mature BF of Pseudomonas aeruginosa under SEM [10]: able to destroy the BF of Pseudomonas aeruginosa; Survival Rate [11]: 84%; reduction of blood glucose level ([12]; AL-1 160 mg/kg, 7 days): about 66%; Blood glucose ([12]; Day 0, before treatment): 19.53 ± 1.90 mmol/L; Body weight ([12]; Day 0, before treatment): 214.33 ± 9.81 g; Total cholesterol ([12]; Day 0, before treatment): 3.39 ± 0.59 mmol/L; Total triglyceride ([12]; Day 0, before treatment): 6.28 ± 0.78 mmol/L |
